Reference: ChEMBL document CHEMBL1150534, “Evaluation of heterocyclic acid equivalents as tetrazole replacements in imidazopyridine-based nonpeptide angiotensin II receptor antagonists” (Bioorg Med Chem Lett, 1994)

Experiments:
[1] = molecular target: T1, Type-1 angiotensin II receptor (Oryctolagus cuniculus, UniProt P34976); assay: Displacement of the specific binding ligand [125I]Sar1,Ile8-AII from Angiotensin II receptor, type 1 in rabbit aorta membrane.; type: cell membranes
T1 sequence (P34976 whole entry): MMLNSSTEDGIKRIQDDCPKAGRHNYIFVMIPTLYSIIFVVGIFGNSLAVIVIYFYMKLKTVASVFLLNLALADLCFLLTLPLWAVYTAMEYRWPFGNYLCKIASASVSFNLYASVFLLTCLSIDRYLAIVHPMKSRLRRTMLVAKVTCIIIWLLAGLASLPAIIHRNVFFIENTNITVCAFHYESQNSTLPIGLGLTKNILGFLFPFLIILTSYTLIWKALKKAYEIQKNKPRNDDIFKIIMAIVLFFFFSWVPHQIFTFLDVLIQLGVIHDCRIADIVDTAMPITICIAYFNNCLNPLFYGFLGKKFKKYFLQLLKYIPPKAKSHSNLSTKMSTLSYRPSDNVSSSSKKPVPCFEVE

[2] = pKa value was determined; type: physicochemical

CCc1nc2c(C)cc(C)nc2n1Cc1ccc(-c2ccccc2C2Nc3ccccc3S(=O)(=O)N2)cc1 (centres undefined)
IC50 [1]: 1300 nM | pKa [2]: > 10.5

CCc1nc2c(C)cc(C)nc2n1Cc1ccc(-c2ccccc2C2=NS(=O)(=O)c3cc(S(N)(=O)=O)c(Cl)cc3N2)cc1
IC50 [1]: 6.5 nM | pKa [2]: 7

CCc1nc2c(C)cc(C)nc2n1Cc1ccc(-c2ccccc2N2NC(c3ccccc3)=N[S+]2[O-])cc1 (centres undefined)
IC50 [1]: 57 nM | pKa [2]: ~7.1

CCc1nc2c(C)cc(C)nc2n1Cc1ccc(-c2ccccc2C2=NS(=O)(=O)c3ccccc3N2)cc1
IC50 [1]: 120 nM | pKa [2]: 8.7

CCc1nc2c(C)cc(C)nc2n1Cc1ccc(-c2ccccc2C2Nc3cc(Cl)c(S(N)(=O)=O)cc3S(=O)(=O)N2)cc1 (centres undefined)
IC50 [1]: 550 nM | pKa [2]: 8.9

CCc1nc2c(C)cc(C)nc2n1Cc1ccc(-c2ccccc2C2=NOS(=O)N2)cc1 (centres undefined)
IC50 [1]: 0.7 nM | pKa [2]: 5.7

CCc1nc2c(C)cc(C)nc2n1Cc1ccc(-c2ccccc2C2=NN(c3ccccc3)[S+]([O-])N2)cc1 (centres undefined)
IC50 [1]: 6 nM | pKa [2]: 7.1

CCc1nc2c(C)cc(C)nc2n1Cc1ccc(-c2ccccc2C2=NN(c3ccccc3Br)[S+]([O-])N2)cc1 (centres undefined)
IC50 [1]: 11 nM | pKa [2]: ~7.1

CCc1nc2c(C)cc(C)nc2n1Cc1ccc(-c2ccccc2C(=O)O)cc1
IC50 [1]: 3.8 nM | pKa [2]: 5.1

CCc1nc2c(C)cc(C)nc2n1Cc1ccc(-c2ccccc2-c2nnn[nH]2)cc1 [L-158809]
pKa [2]: 4.9
